Test results: patent publication US10201531B2, “Indazolyl-oxo-isothiazole compounds” (MOCHIDA PHARMACEUTICAL CO., LTD., priority 2015, dated 2019)
pEC50: −log10 of the molar value.

Each compound was assayed on Nrf2 (assay: Evaluation of Nrf2 activation ability (Nrf2d-LacZ / Keap1 HEK293 reporter, Beta-Glo luminescence)). Conditions: Pharmacological Test Example 1, rated A/B/C.
Assay type: cell-based, human
Experimental: HEK293 cells constantly expressing Nrf2d-LacZ (human Nrf2 degron region fused to LacZ; Hirotsu et al, Genes to Cell, Vol. 16, pp. 406-415 (2011)) and human Keap1 were seeded 7,000 cells/27 μl/well on 384-well plates (Corning 384 Well Flat Clear Bottom White Polystyrene TC-Treated Microplates, Cat. #3707), and cultured overnight at 5% CO2, 37° C. in DMEM medium containing 10% FBS, 100 U/mL penicillin and 100 μg/mL streptomycin. 3 μL/well of a 0.1% DMSO solution of the compound of the invention was added to the cells, which were then cultured for 3 hours at 5% CO2, 37° C. Beta-Glo® reagent (Promega, Beta-Glo Assay System, Cat. #E4740) was added 15 μL/well and incubated for 1 hour at room temperature, and luminescence intensity was measured with a luminometer. Using CDDO-Im as a standard, Nrf2 activation ability was calculated given 100% as the luminescence under stimulus with 100 nM CDDO-Im.

| SMILES | pEC50 |
| --- | --- |
| CN(C)Cc1cccc(-c2cnn(-c3cc(O)n[s+]3[O-])c2)c1 (centres unmarked) [Example 406] | 5.00 to 5.30 |
| [O-][s+]1nc(O)cc1-n1cc(-c2cccc3cnccc23)cn1 (centres unmarked) [Example 343] | 5.30 to 6.00 |
| [O-][s+]1nc(O)cc1-n1cc(-c2cccc(-c3ccccc3)c2)cn1 (centres unmarked) [Example 326] | > 6.00 |
| [O-][s+]1nc(O)cc1-n1cc(-c2ccc(-c3ccccc3)cc2)cn1 (centres unmarked) [Example 327] | 5.30 to 6.00 |
| [O-][s+]1nc(O)cc1-n1cc(-c2ccc3c(c2)CCCC3)cn1 (centres unmarked) [Example 342] | > 6.00 |
| Cn1ccc2ccc(-c3cnn(-c4cc(O)n[s+]4[O-])c3)cc21 (centres unmarked) [Example 353] | > 6.00 |
| Cc1cncc(-c2cnn(-c3cc(O)n[s+]3[O-])c2)n1 (centres unmarked) [Example 416] | 5.30 to 6.00 |
| [O-][s+]1nc(O)cc1-n1cc(-c2ccc3cnccc3c2)cn1 (centres unmarked) [Example 356] | 5.30 to 6.00 |
| [O-][s+]1nc(O)cc1-n1cc(-c2cnc(C3CC3)cn2)cn1 (centres unmarked) [Example 414] | > 6.00 |
| CN1CCOc2cc(-c3cnn(-c4cc(O)n[s+]4[O-])c3)ccc21 (centres unmarked) [Example 347] | > 6.00 |
| [O-][s+]1nc(O)cc1-n1cc(-c2cnc(C(F)(F)F)cn2)cn1 (centres unmarked) [Example 415] | 5.30 to 6.00 |
| Cc1cnc(-c2cnn(-c3cc(O)n[s+]3[O-])c2)cn1 (centres unmarked) [Example 413] | 5.30 to 6.00 |
| COC(=O)C1(c2ccc(-c3cnn(-c4cc(O)n[s+]4[O-])c3)cc2)CC1 (centres unmarked) [Example 324] | > 6.00 |
| [O-][s+]1nc(O)cc1-n1cc(-c2ccc(Oc3ccc(C(F)(F)F)cc3Cl)cc2)cn1 (centres unmarked) [Example 374] | 5.30 to 6.00 |
| [O-][s+]1nc(O)cc1-n1cc2cc(OCc3cccnc3)ccc2n1 (centres unmarked) [Example 445] | 5.30 to 6.00 |
| [O-][s+]1nc(O)cc1-n1cc(-c2cccc3ncccc23)cn1 (centres unmarked) [Example 355] | 5.30 to 6.00 |
| [O-][s+]1nc(O)cc1-n1cc(-c2ccc3ccccc3c2)cn1 (centres unmarked) [Example 340] | > 6.00 |
| Cn1c(=O)oc2cc(-c3cnn(-c4cc(O)n[s+]4[O-])c3)ccc21 (centres unmarked) [Example 424] | 5.00 to 5.30 |
| [O-][s+]1nc(O)cc1-n1cc(-c2ccc(C(F)(F)F)nc2)cn1 (centres unmarked) [Example 396] | 5.30 to 6.00 |
| O=c1oc2cc(-c3cnn(-c4cc(O)n[s+]4[O-])c3)ccc2n1CC1CC1 (centres unmarked) [Example 429] | 5.30 to 6.00 |
| CC1(C)C(=O)N(c2cnn(-c3cc(O)n[s+]3[O-])c2)c2ccccc21 (centres unmarked) [Example 420] | 5.30 to 6.00 |
| Cc1ccnc(-c2cnn(-c3cc(O)n[s+]3[O-])c2)n1 (centres unmarked) [Example 433] | 5.30 to 6.00 |
| [O-][s+]1nc(O)cc1-n1cc(-c2ccc(N3CCCCC3)nc2)cn1 (centres unmarked) [Example 321] | 5.30 to 6.00 |
| [O-][s+]1nc(O)cc1-n1cc(-c2ccc(N3CCCC3)nc2)cn1 (centres unmarked) [Example 322] | 5.30 to 6.00 |
| [O-][s+]1nc(O)cc1-n1cc(C2=Cc3ccccc3CC2)cn1 (centres unmarked) [Example 349] | > 6.00 |
| COc1ccc(-c2cnn(-c3cc(O)n[s+]3[O-])c2)cc1 (centres unmarked) [Example 389] | > 6.00 |
| [O-][s+]1nc(O)cc1-n1cc(-c2ccc3c(c2)OCCO3)cn1 (centres unmarked) [Example 346] | 5.30 to 6.00 |
| Cc1cccc(C)c1-c1cccc(COc2ccc(-c3cnn(-c4cc(O)n[s+]4[O-])c3)cc2)c1 (centres unmarked) [Example 338] | 5.30 to 6.00 |
| Cn1ccc2c(-c3cnn(-c4cc(O)n[s+]4[O-])c3)cccc21 (centres unmarked) [Example 352] | > 6.00 |
| Cc1cncc(-c2cnn(-c3cc(O)n[s+]3[O-])c2)c1 (centres unmarked) [Example 401] | 5.00 to 5.30 |

Same assay, conditions: rated A/B/C, Pharmacological Test Example 1

| SMILES | pEC50 |
| --- | --- |
| Cc1ccc2cnn(-c3cc(O)n[s+]3[O-])c2c1 (centres unmarked) [Example 32] | 5.30 to 6.00 |
| [O-][s+]1nc(O)cc1-n1cccn1 (centres unmarked) [Example 284] | 5.30 to 6.00 |
| [O-][s+]1nc(O)cc1-n1ncc2cc(-c3ccc(Oc4ccccc4)cc3)ccc21 (centres unmarked) [Example 74] | > 6.00 |
| Cn1cc(-c2ccc3c(cnn3-c3cc(O)n[s+]3[O-])c2)ccc1=O (centres unmarked) [Example 171] | 5.00 to 5.30 |
| [O-][s+]1nc(O)cc1-n1ncc2ccc(Br)cc21 (centres unmarked) [Example 7] | 5.30 to 6.00 |
| N#Cc1nn(-c2cc(O)n[s+]2[O-])c2ccc(Cl)cc12 (centres unmarked) [Example 21] | 5.30 to 6.00 |
| Cn1cc2c(-c3ccc4c(cnn4-c4cc(O)n[s+]4[O-])c3)cccc2n1 (centres unmarked) [Example 76] | 5.30 to 6.00 |
| COc1cccc(-c2ccc3c(cnn3-c3cc(O)n[s+]3[O-])c2)n1 (centres unmarked) [Example 129] | > 6.00 |
| [O-][s+]1nc(O)cc1-n1ncc2cc(-c3ccc(F)cc3)ccc21 (centres unmarked) [Example 85] | > 6.00 |
| [O-][s+]1nc(O)cc1-n1ncc2c(-c3ccccc3)cccc21 (centres unmarked) [Example 79] | 5.30 to 6.00 |
| [O-][s+]1nc(O)cc1-n1ncc2c1CN(Cc1cnc3ccccc3c1)C2 (centres unmarked) [Example 263] | 5.30 to 6.00 |
| [O-][s+]1nc(O)cc1-n1ncc2cc(-c3cccnc3)ccc21 (centres unmarked) [Example 38] | > 6.00 |
| CN1CCOc2ncc(-c3ccc4c(cnn4-c4cc(O)n[s+]4[O-])c3)cc21 (centres unmarked) [Example 165] | 5.30 to 6.00 |
| COc1cc(-c2cccnc2)c2cnn(-c3cc(O)n[s+]3[O-])c2c1 (centres unmarked) [Example 166] | 5.30 to 6.00 |
| [O-][s+]1nc(O)cc1-n1ncc2c(-c3ccc(C4CC4)nc3)cccc21 (centres unmarked) [Example 98] | 5.30 to 6.00 |
| [O-][s+]1nc(O)cc1-n1ncc2cc(Br)ncc21 (centres unmarked) [Example 234] | 5.30 to 6.00 |
| CC(C)(C)OC(=O)N1Cc2cnn(-c3cc(O)n[s+]3[O-])c2C1 (centres unmarked) [Example 245] | 5.30 to 6.00 |
| COc1cc(-c2cnc3c(c2)OCCN3C)cc2c1cnn2-c1cc(O)n[s+]1[O-] (centres unmarked) [Example 192] | > 6.00 |
| [O-][s+]1nc(O)cc1-n1ncc2cc(-c3cnc4ccoc4c3)ccc21 (centres unmarked) [Example 61] | > 6.00 |
| Cc1cncc(-c2ccc3c(cnn3-c3cc(O)n[s+]3[O-])c2)n1 (centres unmarked) [Example 118] | 5.30 to 6.00 |
| CC(C)(C)OC(=O)N1CCC(c2ccc3c(cnn3-c3cc(O)n[s+]3[O-])c2)CC1 (centres unmarked) [Example 62] | > 6.00 |
| [O-][s+]1nc(O)cc1-n1ncc2c(-c3cccnc3)cccc21 (centres unmarked) [Example 92] | 5.30 to 6.00 |
| CN1CCOc2cc(-c3ccc4c(cnn4-c4cc(O)n[s+]4[O-])c3)c(C(F)F)nc21 (centres unmarked) [Example 204] | > 6.00 |
| [O-][s+]1nc(O)cc1-n1ncc2ccncc21 (centres unmarked) [Example 231] | 5.00 to 5.30 |
| [O-][s+]1nc(O)cc1-n1ncc2cc(-c3ccc(C4CC4)nc3)ccc21 (centres unmarked) [Example 46] | > 6.00 |
| [O-][s+]1nc(O)cc1-n1ncc2cc(F)ccc21 (centres unmarked) [Example 11] | 5.30 to 6.00 |
| [O-][s+]1nc(O)cc1-n1ncc2cc(-c3cnc4c(c3)OCCCCN4)ccc21 (centres unmarked) [Example 206] | > 6.00 |

| SMILES | pEC50 |
| --- | --- |
| [O-][s+]1nc(O)cc1-n1ncc2c(Cl)cccc21 (centres unmarked) [Example 29] | 5.30 to 6.00 |
| [O-][s+]1nc(O)cc1-n1cc2c(n1)CCN(Cc1ccccc1)C2 (single isomer, unassigned) [Example 256] | 5.30 to 6.00 |
| CC(C)(C)OC(=O)N1CC=C(c2ccc3cnn(-c4cc(O)n[s+]4[O-])c3c2)CC1 (centres unmarked) [Example 104] | 5.30 to 6.00 |
| Nc1ccc(-c2ccc3c(cnn3-c3cc(O)n[s+]3[O-])c2)cn1 (centres unmarked) [Example 45] | 5.30 to 6.00 |
| COc1cc(-c2cc(OC)c3cnn(-c4cc(O)n[s+]4[O-])c3c2)ccn1 (centres unmarked) [Example 201] | > 6.00 |
| [O-][s+]1nc(O)cc1-n1ncc2c(-c3ccc(N4CCCC4)nc3)cccc21 (centres unmarked) [Example 107] | 5.30 to 6.00 |
| CN1CCOc2cc(-c3cc4cnn(-c5cc(O)n[s+]5[O-])c4cn3)cnc21 (single isomer, unassigned) [Example 243] | > 6.00 |
| COc1cc(-c2ccnc(N3CCCC3)c2)cc2c1cnn2-c1cc(O)n[s+]1[O-] (centres unmarked) [Example 194] | > 6.00 |
| [O-][s+]1nc(O)cc1-n1ncc2ccc(Cl)cc21 (centres unmarked) [Example 31] | 5.30 to 6.00 |
| Cc1nn(-c2cc(O)n[s+]2[O-])c2ccc(Cl)cc12 (centres unmarked) [Example 15] | 5.30 to 6.00 |
| Cc1cc(-c2ccccc2)nn1-c1cc(O)n[s+]1[O-] (centres unmarked) [Example 310] | 5.30 to 6.00 |
| N#Cc1ccc(-c2ccc3c(cnn3-c3cc(O)n[s+]3[O-])c2)nc1 (centres unmarked) [Example 108] | 5.30 to 6.00 |
| [O-][s+]1nc(O)cc1-n1ncc2cc(-c3cnc4c(c3)OCCN4)ccc21 (centres unmarked) [Example 152] | 5.30 to 6.00 |
| COc1cc(-c2ccc(C3CC3)nc2)cc2c1cnn2-c1cc(O)n[s+]1[O-] (centres unmarked) [Example 203] | > 6.00 |
| [O-][s+]1nc(O)cc1-n1ncc2cc(-c3cccnc3)ccc21 (centres unmarked) [Example 54] | > 6.00 |
| [O-][s+]1nc(O)cc1-n1ncc2cc(-c3cn[nH]c3)ccc21 (centres unmarked) [Example 51] | 5.00 to 5.30 |
| O=C(c1ccccc1)N1CCC(c2ccc3c(cnn3-c3cc(O)n[s+]3[O-])c2)CC1 (centres unmarked) [Example 168] | 5.00 to 5.30 |
| Cc1ccc2c(cnn2-c2cc(O)n[s+]2[O-])c1 (centres unmarked) [Example 25] | 5.00 to 5.30 |
| [O-][s+]1nc(O)cc1-n1ncc2cc(C3=CCC(F)(F)CC3)ccc21 (centres unmarked) [Example 39] | > 6.00 |
| CN1CCOc2cc(-c3ccc4c(c3)c(C#N)nn4-c3cc(O)n[s+]3[O-])cnc21 (centres unmarked) [Example 221] | 5.30 to 6.00 |
| N#Cc1ccc2c(cnn2-c2cc(O)n[s+]2[O-])c1 (centres unmarked) [Example 19] | 5.30 to 6.00 |
| [O-][s+]1nc(O)cc1-n1ncc2cc(-c3ccc(N4CCCCC4)nc3)ccc21 (centres unmarked) [Example 90] | > 6.00 |
| [O-][s+]1nc(O)cc1-n1ncc2cc(-c3cnc4c(c3)OCCN4C3CC3)ccc21 (centres unmarked) [Example 149] | > 6.00 |
| [O-][s+]1nc(O)cc1-n1ncc2cc(-c3ccccc3)ccc21 (centres unmarked) [Example 28] | 5.30 to 6.00 |
| Cc1cncc(-c2ccc3c(cnn3-c3cc(O)n[s+]3[O-])c2)c1 (centres unmarked) [Example 49] | > 6.00 |
| COc1c(Br)ccc2c1cnn2-c1cc(O)n[s+]1[O-] (centres unmarked) [Example 207] | > 6.00 |
